Laboratory results taken from EP0090204A1, “Optically active levorotatory derivatives of phenoxy-benzoic acid, method for their preparation and their use as herbicides” (BAYER AG, priority 1982, dated 1983).

How the values were obtained:
Format in all cases: in vivo
Testpflanzen [1] = experiment: Pre-emergence test, overall comparison; settings: compared with the corresponding racemic compounds (A) and (B)
Source text: (§1) Zur Herstellung einer zweckmäßigen Wirkstoffzubereitung vermischt man 1 Gewichtsteil Wirkstoff mit der angegebenen Menge Lösungsmittel, gibt die angegebene Menge Emulgator zu und verdünnt das Konzentrat mit Wasser auf die gewünschte Konzentration.
(§2) Samen der Testpflanzen werden in normalen Boden ausgesät und nach 24 Stunden mit der Wirkstoffzubereitung begossen. Dabei hält man die Wassermenge pro Flächeneinheit zweckmäßigerweise konstant. Die Wirkstoffkonzentration in der Zubereitung spielt keine Rolle, entscheidend ist nur die Aufwandmenge des Wirkstoffs pro Flächeneinheit. Nach drei Wochen wird der Schädigungsgrad der Pflanzen bonitiert in % Schädigung im Vergleich zur Entwicklung der unbehandelten Kontrolle.

Rüben [2] = experiment: Post-emergence test; settings: % damage vs untreated control after three weeks
Source text: as §1
(§3) Mit der Wirkstoffzubereitung spritzt man Testpflanzen, welche eine Höhe von 5 - 15 cm haben so, daß die jeweils gewünschten Wirkstoffmengen pro Flächeneinheit ausgebracht werden. Die Konzentration der Spritzbrühe wird so gewählt, daß in 2000 1 Wasser/ha die jeweils gewünschten Wirkstoffmengen ausgebracht werden. Nach drei Wochen wird der Schädigungsgrad der Pflanzen bonitiert in % Schädigung im Vergleich zur Entwicklung der unbehandelten Kontrolle.

Soja [3] = experiment: Post-emergence test; settings: % damage vs untreated control after three weeks
Source text: as §1, §3

Monocotyledoneae [4] = experiment: Post-emergence test; settings: % damage vs untreated control after three weeks, average effect on several monocots
Source text: as §1, §3

Mais [5] = experiment: Post-emergence test; settings: % damage vs untreated control after three weeks
Source text: as §1, §3

Dicotyledoneae [6] = experiment: Post-emergence test; settings: % damage vs untreated control after three weeks, average effect on several dicots
Source text: as §1, §3

Rüben [7] = experiment: Pre-emergence test; settings: % damage vs untreated control after three weeks
Source text: as §1, §2

Soja [8] = experiment: Pre-emergence test; settings: % damage vs untreated control after three weeks
Source text: as §1, §2

Monocotyledoneae [9] = experiment: Pre-emergence test; settings: % damage vs untreated control after three weeks, average effect on several monocots
Source text: as §1, §2

Mais [10] = experiment: Pre-emergence test; settings: % damage vs untreated control after three weeks
Source text: as §1, §2

Dicotyledoneae [11] = experiment: Pre-emergence test; settings: % damage vs untreated control after three weeks, average effect on several dicots
Source text: as §1, §2

Testpflanzen [12] = experiment: Post-emergence test, overall comparison; settings: compared with the corresponding racemic compounds (A) and (B)
Source text: as §1, §3

## CCOC(=O)[C@@H](C)OC(=O)c1cc(Oc2ccc(C(F)(F)F)cc2Cl)ccc1[N+](=O)[O-] [(2), 5-(2-Chlor-4-trifluormethyl-phenoxy)-2-nitro-benzoesäure-(1-ethoxycarbonyl-ethyl)-esters]
Testpflanzen [1]
  herbizide Wirksamkeit: bessere herbizide Wirksamkeit
Rüben [2]; 0,75 kg/ha
  Wirkung (in %) Rüben: 100%
Soja [3]; 0,75 kg/ha
  Wirkung (in %) Soja: 99%
Monocotyledoneae [4]; 0,75 kg/ha
  Wirkung (in %) Monocotyledoneae: 86,3%
Mais [5]; 0,75 kg/ha
  Wirkung (in %) Mais: 99%
Dicotyledoneae [6]; 0,75 kg/ha
  Wirkung (in %) Dicotyledoneae: 99,3%
Rüben [7]; 0,75 kg/ha
  Wirkung (in %) Rüben: 99%
Soja [8]; 0,75 kg/ha
  Wirkung (in %) Soja: 0%
Monocotyledoneae [9]; 0,75 kg/ha
  Wirkung (in %) Monocotyledoneae: 80,7%
Mais [10]; 0,75 kg/ha
  Wirkung (in %) Mais: 0%
Dicotyledoneae [11]; 0,75 kg/ha
  Wirkung (in %) Dicotyledoneae: 74,3%
Testpflanzen [12]
  herbizide Wirksamkeit: bessere herbizide Wirksamkeit

## CCOC(=O)[C@@H](C)OC(=O)c1cc(Oc2c(Cl)cc(C(F)(F)F)cc2Cl)ccc1[N+](=O)[O-] [(1), 5-(2,6-Dichlor-4-trifluormethyl-phenoxy)-2-nitro-benzoesäure-(1-ethoxycarbonylethyl)-esters]
Testpflanzen [1]
  herbizide Wirksamkeit: bessere herbizide Wirksamkeit
Rüben [2]; 0,6 kg/ha
  Wirkung (in %) Rüben: 100%
Soja [3]; 0,6 kg/ha
  Wirkung (in %) Soja: 100%
Monocotyledoneae [4]; 0,6 kg/ha
  Wirkung (in %) Monocotyledoneae: 81,1%
Mais [5]; 0,6 kg/ha
  Wirkung (in %) Mais: 80%
Dicotyledoneae [6]; 0,6 kg/ha
  Wirkung (in %) Dicotyledoneae: 99,3%
Rüben [7]; 0,6 kg/ha
  Wirkung (in %) Rüben: 100%
Soja [8]; 0,6 kg/ha
  Wirkung (in %) Soja: 10%
Monocotyledoneae [9]; 0,6 kg/ha
  Wirkung (in %) Monocotyledoneae: 79,3%
Mais [10]; 0,6 kg/ha
  Wirkung (in %) Mais: 10%
Dicotyledoneae [11]; 0,6 kg/ha
  Wirkung (in %) Dicotyledoneae: 92,7%
Testpflanzen [12]
  herbizide Wirksamkeit: bessere herbizide Wirksamkeit
